From PubChem BioAssay AID1963962 (Molecular Pharmacology Branch, DTP, NCI, 2024)

Tested on: 967376-340-R-J2-PDC multicell spheroid viability
Assay: Anticancer human tumor 967376-340-R-J2-PDC patient-derived colon adenocarcinoma cell line growth inhibition [PI3K]
Settings: for IC50: curve of first compound; for viability, T/C: stronger effect = lower value
How it was run: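 Tumor cells were combined with HUVEC and MSCs into spheroids, then dosed with PI3K-inhibitor combinations over half-log ranges capped near clinical Cmax or 10 microM.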

[1] = second compound 0.0316 µM, first compound 0.0316 µM
[2] = second compound 0.0316 µM, first compound 0.1 µM
[3] = second compound 0.0316 µM, first compound 0.316 µM
[4] = second compound 0.0316 µM, first compound 1 µM
[5] = second compound 0.0316 µM, first compound 3.16 µM
[6] = second compound 0.0316 µM, first compound 10 µM
[7] = second compound 0.1 µM, first compound 0.0316 µM
[8] = second compound 0.1 µM, first compound 0.1 µM
[9] = second compound 0.1 µM, first compound 0.316 µM
[10] = second compound 0.1 µM, first compound 1 µM
[11] = second compound 0.1 µM, first compound 3.16 µM
[12] = second compound 0.1 µM, first compound 10 µM
[13] = second compound 0.316 µM, first compound 0.0316 µM
[14] = second compound 0.316 µM, first compound 0.1 µM
[15] = second compound 0.316 µM, first compound 0.316 µM
[16] = second compound 0.316 µM, first compound 1 µM
[17] = second compound 0.316 µM, first compound 3.16 µM
[18] = second compound 0.316 µM, first compound 10 µM
[19] = second compound 1 µM, first compound 0.0316 µM
[20] = second compound 1 µM, first compound 0.1 µM
[21] = second compound 1 µM, first compound 0.316 µM
[22] = second compound 1 µM, first compound 1 µM
[23] = second compound 1 µM, first compound 3.16 µM
[24] = second compound 1 µM, first compound 10 µM
[25] = second compound 3.16 µM, first compound 0.0316 µM
[26] = second compound 3.16 µM, first compound 0.1 µM
[27] = second compound 3.16 µM, first compound 0.316 µM
[28] = second compound 3.16 µM, first compound 1 µM
[29] = second compound 3.16 µM, first compound 3.16 µM
[30] = second compound 3.16 µM, first compound 10 µM
[31] = second compound 10 µM, first compound 0.0316 µM
[32] = second compound 10 µM, first compound 0.1 µM
[33] = second compound 10 µM, first compound 0.316 µM
[34] = second compound 10 µM, first compound 1 µM
[35] = second compound 10 µM, first compound 3.16 µM
[36] = second compound 10 µM, first compound 10 µM
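Also: spheroids exposed to agents for 7 days before read-out.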
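For viability, T/C in this document: luminescence used as surrogate of cell viability.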

Work on `CC(Cn1ccc(-c2ccc(C#N)c(Cl)c2)n1)NC(=O)c1cc(C(C)O)[nH]n1` (centres undefined) + Cc1nc(NC(=O)N2CCCC2C(N)=O)sc1-c1ccnc(C(C)(C)C(F)(F)F)c1 yielded an IC50 (second compound 0.0316 µM) of over 10 µM, an IC50 (second compound 0.1 µM) of over 10 µM and an IC50 (second compound 0.316 µM) of over 10 µM. For the same molecule, the IC50 (second compound 1 µM) was over 10 µM, the IC50 (second compound 3.16 µM) was over 10 µM and the IC50 (second compound 10 µM) was over 10 µM. For the same molecule, the viability, T/C [1] was 90.6%, the viability, T/C [2] was 118% and the viability, T/C [3] was 104%. For the same molecule, the viability, T/C [4] was 93.9%, the viability, T/C [5] was 109% and the viability, T/C [6] was 102%. The viability, T/C [7] was 95.1%, the viability, T/C [8] was 103% and the viability, T/C [9] was 91.6%. For the same molecule, the viability, T/C [10] was 100%, the viability, T/C [11] was 92.9% and the viability, T/C [12] was 119%. For the same molecule, the viability, T/C [13] was 69.3%, the viability, T/C [14] was 94.3% and the viability, T/C [15] was 95%. For the same molecule, the viability, T/C [16] was 92.7%, the viability, T/C [17] was 102% and the viability, T/C [18] was 73.8%. The viability, T/C [19] was 58%, the viability, T/C [20] was 66.8% and the viability, T/C [21] was 75.2%. The viability, T/C [22] was 72.5%, the viability, T/C [23] was 83.5% and the viability, T/C [24] was 65.7%. The viability, T/C [25] was 54.4%, the viability, T/C [26] was 62.3% and the viability, T/C [27] was 61.5%. For the same molecule, the viability, T/C [28] was 52.5%, the viability, T/C [29] was 62.9% and the viability, T/C [30] was 73.7%. It also gave a viability, T/C [31] of 57.3%, a viability, T/C [32] of 58.4% and a viability, T/C [33] of 43.3%. For the same molecule, the viability, T/C [34] was 60.9%, the viability, T/C [35] was 72.1% and the viability, T/C [36] was 48.2%.

In the case of `Cn1ncc(Cl)c1-c1cc(C(=O)NC(CN)Cc2cccc(F)c2)sc1Cl` (centres undefined) + CC(Nc1ncnc2nc[nH]c12)c1cc2cccc(Cl)c2c(=O)n1-c1ccccc1, the IC50 (second compound 0.0316 µM) is reported as over 10 µM, the IC50 (second compound 0.1 µM) is reported as over 10 µM and the IC50 (second compound 0.316 µM) is reported as over 10 µM. For the same molecule, the IC50 (second compound 1 µM) was 9.58 µM, the IC50 (second compound 3.16 µM) was over 10 µM and the IC50 (second compound 10 µM) was 6.67 µM. For the same molecule, the viability, T/C [1] was 99%, the viability, T/C [2] was 95% and the viability, T/C [3] was 93.6%. It also gave a viability, T/C [4] of 91.1%, a viability, T/C [5] of 66.9% and a viability, T/C [6] of 62.5%. The viability, T/C [7] was 122%, the viability, T/C [8] was 97.3% and the viability, T/C [9] was 104%. For the same molecule, the viability, T/C [10] was 86.7%, the viability, T/C [11] was 84.8% and the viability, T/C [12] was 71.1%. For the same molecule, the viability, T/C [13] was 87.2%, the viability, T/C [14] was 97.7% and the viability, T/C [15] was 86.9%. For the same molecule, the viability, T/C [16] was 81.4%, the viability, T/C [17] was 78.3% and the viability, T/C [18] was 64.6%. The viability, T/C [19] was 85.3%, the viability, T/C [20] was 104% and the viability, T/C [21] was 101%. The viability, T/C [22] was 86.4%, the viability, T/C [23] was 79.1% and the viability, T/C [24] was 48.8%. The viability, T/C [25] was 101%, the viability, T/C [26] was 93.7% and the viability, T/C [27] was 104%. For the same molecule, the viability, T/C [28] was 73.5%, the viability, T/C [29] was 73.2% and the viability, T/C [30] was 53.6%. For the same molecule, the viability, T/C [31] was 79.4%, the viability, T/C [32] was 88.5% and the viability, T/C [33] was 96.7%. The viability, T/C [34] was 86.3%, the viability, T/C [35] was 60.3% and the viability, T/C [36] was 44.4%.
